# Results published in patent US12358886B2, “Heterocyclic compounds for use in the treatment of cancer” (Artios Pharma Limited, priority 2019, dated 2025).
# Where two headings read alike, the source gives them in different places.
# Target: Polθ protein (amino acids 2-2590) (Homo sapiens, UniProt O75417)
# Test: Polθ full length enzyme potency assay (PicoGreen)
# Settings: full length N-His, C-term FLAG tagged Polθ, PicoGreen fluorescence, 12 point concentration response
# Chain of Polθ protein (amino acids 2-2590) (O75417 2-2590): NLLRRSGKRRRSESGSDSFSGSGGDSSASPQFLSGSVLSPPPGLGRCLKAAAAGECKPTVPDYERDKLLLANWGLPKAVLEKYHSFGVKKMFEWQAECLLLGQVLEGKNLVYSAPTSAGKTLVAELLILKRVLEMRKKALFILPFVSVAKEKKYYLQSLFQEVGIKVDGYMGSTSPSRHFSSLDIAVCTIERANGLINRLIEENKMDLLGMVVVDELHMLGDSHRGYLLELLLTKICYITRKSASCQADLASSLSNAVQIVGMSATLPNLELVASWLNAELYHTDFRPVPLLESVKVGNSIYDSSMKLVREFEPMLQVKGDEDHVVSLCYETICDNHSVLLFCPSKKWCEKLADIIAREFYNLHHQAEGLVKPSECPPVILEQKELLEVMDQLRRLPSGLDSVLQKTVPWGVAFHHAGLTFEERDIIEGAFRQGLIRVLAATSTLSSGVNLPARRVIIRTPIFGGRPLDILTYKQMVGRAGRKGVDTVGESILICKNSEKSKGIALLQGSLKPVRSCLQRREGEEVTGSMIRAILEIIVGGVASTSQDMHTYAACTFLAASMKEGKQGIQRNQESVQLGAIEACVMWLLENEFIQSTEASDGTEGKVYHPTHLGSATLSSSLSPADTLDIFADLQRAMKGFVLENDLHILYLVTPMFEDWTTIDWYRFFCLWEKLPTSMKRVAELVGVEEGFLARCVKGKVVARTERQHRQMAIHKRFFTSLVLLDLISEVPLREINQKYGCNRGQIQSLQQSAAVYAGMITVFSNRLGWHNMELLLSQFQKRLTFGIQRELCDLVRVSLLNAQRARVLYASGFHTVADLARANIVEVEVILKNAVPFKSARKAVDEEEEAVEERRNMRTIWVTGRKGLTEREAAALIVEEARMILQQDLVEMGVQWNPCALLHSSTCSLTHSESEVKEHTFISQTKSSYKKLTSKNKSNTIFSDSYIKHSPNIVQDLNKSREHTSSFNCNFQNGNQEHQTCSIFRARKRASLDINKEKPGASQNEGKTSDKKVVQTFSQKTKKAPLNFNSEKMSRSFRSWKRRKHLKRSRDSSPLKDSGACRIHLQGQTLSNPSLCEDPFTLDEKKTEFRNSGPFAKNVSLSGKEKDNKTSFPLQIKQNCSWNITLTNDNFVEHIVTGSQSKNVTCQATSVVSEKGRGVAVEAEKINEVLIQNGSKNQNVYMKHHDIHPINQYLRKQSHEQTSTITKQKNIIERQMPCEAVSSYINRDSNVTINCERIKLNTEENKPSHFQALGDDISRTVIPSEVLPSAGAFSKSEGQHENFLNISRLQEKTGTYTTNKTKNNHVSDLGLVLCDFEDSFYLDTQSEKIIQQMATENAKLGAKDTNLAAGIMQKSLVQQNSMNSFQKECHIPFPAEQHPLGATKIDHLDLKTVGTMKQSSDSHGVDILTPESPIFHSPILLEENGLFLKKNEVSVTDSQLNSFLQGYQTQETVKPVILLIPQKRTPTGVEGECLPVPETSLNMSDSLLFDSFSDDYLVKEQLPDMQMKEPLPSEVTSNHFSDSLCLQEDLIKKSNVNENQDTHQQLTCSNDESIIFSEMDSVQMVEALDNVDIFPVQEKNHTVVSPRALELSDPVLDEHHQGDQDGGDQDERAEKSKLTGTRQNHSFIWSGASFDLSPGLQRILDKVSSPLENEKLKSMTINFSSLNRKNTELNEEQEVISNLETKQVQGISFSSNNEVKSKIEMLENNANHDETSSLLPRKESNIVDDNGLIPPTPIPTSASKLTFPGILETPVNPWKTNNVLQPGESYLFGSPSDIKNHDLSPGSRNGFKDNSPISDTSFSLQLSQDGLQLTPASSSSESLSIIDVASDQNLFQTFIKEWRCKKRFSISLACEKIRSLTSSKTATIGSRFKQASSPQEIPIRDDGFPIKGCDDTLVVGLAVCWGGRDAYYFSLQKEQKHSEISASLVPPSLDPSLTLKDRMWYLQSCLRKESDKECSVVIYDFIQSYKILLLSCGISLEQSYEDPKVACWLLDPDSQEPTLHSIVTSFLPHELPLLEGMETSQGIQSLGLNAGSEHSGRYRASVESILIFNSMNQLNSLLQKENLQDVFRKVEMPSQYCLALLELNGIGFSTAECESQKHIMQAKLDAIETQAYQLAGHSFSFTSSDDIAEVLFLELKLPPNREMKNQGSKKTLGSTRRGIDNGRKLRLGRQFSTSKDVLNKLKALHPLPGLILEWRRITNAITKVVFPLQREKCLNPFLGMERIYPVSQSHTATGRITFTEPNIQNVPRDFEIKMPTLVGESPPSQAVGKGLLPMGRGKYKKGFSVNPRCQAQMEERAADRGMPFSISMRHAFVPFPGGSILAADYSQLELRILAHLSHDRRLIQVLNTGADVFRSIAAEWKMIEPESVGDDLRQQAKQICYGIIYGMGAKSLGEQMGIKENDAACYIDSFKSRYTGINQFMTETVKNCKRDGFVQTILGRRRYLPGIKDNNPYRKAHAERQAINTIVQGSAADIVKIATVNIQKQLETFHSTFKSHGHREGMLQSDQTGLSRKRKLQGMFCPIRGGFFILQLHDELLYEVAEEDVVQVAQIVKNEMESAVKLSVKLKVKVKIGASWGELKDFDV
Structure (SMILES),IC50 (Polθ IC50 (nM)) [nM],IC50 (read-out: Polθ IC50) [nM]
"CCN(C)c1cc(C(F)(F)F)c(C#N)c(N2C[C@@H](O)C[C@H]2C(=O)N(C)c2cccc(C)c2)n1 [Example 31, (2S,4S)-1-(3-Cyano-6-(ethyl(methyl)amino)-4-(trifluoromethyl)pyridin-2-yl)-4-hydroxy-N-methyl-N-(m-tolyl)pyrrolidine-2-carboxamide]",395,–
"CCN(C(=O)[C@H]1C[C@@H](N(C)C2CCNC2)CN1c1nc(C)cc(C)c1C#N)c1cccc(C)c1 (stereo in doubt) [Example 48, (2R,4R)-1-(3-Cyano-4,6-dimethylpyridin-2-yl)-N-ethyl-4-(methyl(pyrrolidin-3-yl)amino)-N-(m-tolyl)pyrrolidine-2-carboxamide]",573,–
"Cc1cccc(N(C)C(=O)[C@@H]2[C@H](O)CCN2c2nc(C)cc(C(F)(F)F)c2C#N)c1 [Example 24, (2S,3R)-1-(3-Cyano-6-methyl-4-(trifluoromethyl)pyridin-2-yl)-3-hydroxy-N-methyl-N-(m-tolyl)pyrrolidine-2-carboxamide]",9,–
"C=Cc1cc(C(F)(F)F)cc(N2C(=O)OC[C@H]2C(=O)N(C)c2ccc(F)c(Cl)c2)n1 [Example 114, (S)—N-(3-Chloro-4-fluorophenyl)-N-methyl-2-oxo-3-(4-(trifluoromethyl)-6-vinylpyridin-2-yl)oxazolidine-4-carboxamide]",46,–
"Cc1cc(C(F)(F)F)cc(N2C(=O)N(CCNS(C)(=O)=O)C[C@H]2C(=O)N(C)c2ccc(F)c(Cl)c2)n1 [Example 187, (S)—N-(3-Chloro-4-fluorophenyl)-N-methyl-3-(6-methyl-4-(trifluoromethyl)pyridin-2-yl)-1-(2-(methylsulfonamido)ethyl)-2-oxoimidazolidine-4-carboxamide]",22,–
"Cc1cc(C(F)(F)F)cc(N2C(=O)[C@@H](O)[C@@H](O)[C@H]2C(=O)N(C)c2ccc(Cl)cc2F)n1 [Example 165, (2S,3S,4S)—N-(4-Chloro-2-fluorophenyl)-3,4-dihydroxy-N-methyl-1-(6-methyl-4-(trifluoromethyl)pyridin-2-yl)-5-oxopyrrolidine-2-carboxamide]",20,–
"Cc1cccc(N(C)C(=O)[C@@H]2C[C@H](O)CN2c2nc(C)cc(C(C)C)c2C#N)c1 [Example 33, (2S,4S)-1-(3-Cyano-4-isopropyl-6-methylpyridin-2-yl)-4-hydroxy-N-methyl-N-(m-tolyl)pyrrolidine-2-carboxamide]",30,–
"CC(=O)N(C)C1CCN(CCN2C[C@@H](C(=O)N(C)c3ccc(F)c(Cl)c3F)N(c3cc(C(F)(F)F)cc(C)n3)C2=O)C1 (stereo partly drawn) [Example 207, (4S)-N-(3-Chloro-2,4-difluoro-phenyl)-N-methyl-3-(6-methyl-4-(trifluoromethyl)pyridin-2-yl)-1-(2-(3-(N-methylacetamido)-pyrrolidin-1-yl)ethyl)-2-oxoimidazolidine-4-carboxamide]",7,–
"CCN(C(=O)[C@@H]1C[C@H](N[C@@H]2CCOC[C@H]2O)CN1c1cc(C(F)(F)F)cc(C)n1)c1ccc(F)c(F)c1 [Example 131, (2S,4S)-N-(3,4-Difluorophenyl)-N-ethyl-4-(((3S,4R)-3-hydroxytetrahydro-2H-pyran-4-yl)amino)-1-(6-methyl-4-(trifluoromethyl)pyridin-2-yl)pyrrolidine-2-carboxamide]",248,–
"CCc1c(F)ccc(N(C)C(=O)[C@@H]2COC(=O)N2c2cc(C(F)(F)F)cc(C)n2)c1F [Example 108, (S)—N-(3-Ethyl-2,4-difluorophenyl)-N-methyl-3-(6-methyl-4-(trifluoromethyl)pyridin-2-yl)-2-oxooxazolidine-4-carboxamide]",12,–
"Cc1cc(C)c(C#N)c(N2C[C@@H](O)C[C@H]2C(=O)N(C)c2ccc(F)c(F)c2)n1 [Example 4, (2S,4S)-1-(3-Cyano-4,6-dimethylpyridin-2-yl)-N-(3,4-difluorophenyl)-4-hydroxy-N-methylpyrrolidine-2-carboxamide]",288,–
"Cc1cc(C(F)(F)F)cc(N2C(=O)N(CCN3CCC3)C[C@H]2C(=O)N(C)c2ccc(F)c(Cl)c2)n1 [Example 200, (S)-1-(2-(Azetidin-1-yl)ethyl)-N-(3-chloro-4-fluorophenyl)-N-methyl-3-(6-methyl-4-(trifluoromethyl)pyridin-2-yl)-2-oxoimidazolidine-4-carboxamide]",12,–
"Cc1cc(C(F)(F)F)cc(N2C(=O)OC[C@H]2C(=O)N(C)c2ccc(Br)cc2F)n1 [Example 94, (S)-N-(4-Bromo-2-fluorophenyl)-N-methyl-3-(6-methyl-4-(trifluoromethyl)pyridin-2-yl)-2-oxooxazolidine-4-carboxamide]",12,–
"Cc1cccc(N(C)C(=O)[C@@H]2CCC(=O)N2c2cc(C(F)(F)F)cc(C)n2)c1 [Example 59, (S)—N-Methyl-1-(6-methyl-4-(trifluoromethyl)pyridin-2-yl)-5-oxo-N-(m-tolyl)pyrrolidine-2-carboxamide]",7,–
"Cc1cc(C(F)(F)F)cc(N2C(=O)N(CC3CN(C)C(=O)O3)C[C@H]2C(=O)N(C)c2ccc(F)c(Cl)c2F)n1 (single isomer, unassigned; isomer 1) [Example 229]",–,15
"Cc1cc(C(F)(F)F)cc(N2C(=O)[C@H](O)[C@H](O)[C@H]2C(=O)N(C)c2ccc(F)c(Cl)c2F)n1 [Example 71, (2S,3R,4R)—N-(3-Chloro-2,4-difluorophenyl)-3,4-dihydroxy-N-methyl-1-(6-methyl-4-(trifluoromethyl)pyridin-2-yl)-5-oxopyrrolidine-2-carboxamide]",10,–
"CCN(C(=O)[C@@H]1C[C@H](N(C)[C@@H]2COCC[C@H]2O)CN1c1cc(C(F)(F)F)cc(C)n1)c1ccc(F)c(F)c1 [Example 140, (2S,4S)-N-(3,4-Difluorophenyl)-N-ethyl-4-(((3R,4R)-4-hydroxytetrahydro-2H-pyran-3-yl)(methyl)amino)-1-(6-methyl-4-(trifluoromethyl)pyridin-2-yl)pyrrolidine-2-carboxamide]",60,–
"Cc1cc(C(F)(F)F)cc(N2C(=O)[C@H](CN(C)C)C[C@@H]2C(=O)N(C)c2ccc(F)c(Cl)c2)n1 (stereo in doubt) [Example 78, (2R,4S)—N-(3-Chloro-4-fluorophenyl)-4-((dimethylamino)methyl)-N-methyl-1-(6-methyl-4-(trifluoromethyl)pyridin-2-yl)-5-oxopyrrolidine-2-carboxamide]",48,–
"Cc1cc(C(F)(F)F)cc(N2C(=O)N(CC3CN(C)C3)C[C@H]2C(=O)N(C)c2ccc(F)c(Cl)c2F)n1 [Example 189, (S)—N-(3-Chloro-2,4-difluorophenyl)-N-methyl-3-(6-methyl-4-(trifluoromethyl)pyridin-2-yl)-1-((1-methylazetidin-3-yl)methyl)-2-oxoimidazolidine-4-carboxamide]",32,–
"Cc1cc(C(F)(F)F)cc(N2C(=O)N(CCN3CCN(CCO)CC3)C[C@H]2C(=O)N(C)c2ccc(F)c(Cl)c2F)n1 [Example 209, (S)-N-(3-Chloro-2,4-difluorophenyl)-1-(2-(4-(2-hydroxyethyl)piperazin-1-yl)ethyl)-N-methyl-3-(6-methyl-4-(trifluoromethyl)pyridin-2-yl)-2-oxoimidazolidine-4-carboxamide]",8,–
"CCN(C(=O)[C@H]1C[C@@H](N(C)C2CCN(C(C)=O)C2)CN1c1nc(C)cc(C)c1C#N)c1cccc(C)c1 (stereo in doubt) [Example 52, (2R,4R)-4-((1-Acetylpyrrolidin-3-yl)(methyl)amino)-1-(3-cyano-4,6-dimethylpyridin-2-yl)-N-ethyl-N-(m-tolyl)pyrrolidine-2-carboxamide]",588,–
"Cc1cc(C(F)(F)F)cc(N2C(=O)OC[C@H]2C(=O)N(C)c2ccc(F)c(C)c2)n1 [Example 86, (S)-N-(4-Fluoro-3-methylphenyl)-N-methyl-3-(6-methyl-4-(trifluoromethyl)pyridin-2-yl)-2-oxooxazolidine-4-carboxamide]",9,–
"CCc1cc(N2C[C@@H](O)C[C@H]2C(=O)N(C)c2cccc(C)c2)ncc1C [Example 35, (2S,4S)-1-(4-Ethyl-5-methylpyridin-2-yl)-4-hydroxy-N-methyl-N-(m-tolyl)pyrrolidine-2-carboxamide]",620,–
"Cc1cc(C(F)(F)F)cc(N2C(=O)[C@@H](O)[C@@H](O)[C@H]2C(=O)N(C)c2ccc(F)c(Cl)c2F)n1 [Example 70, (2S,3S,4S)—N-(3-Chloro-2,4-difluorophenyl)-3,4-dihydroxy-N-methyl-1-(6-methyl-4-(trifluoromethyl)pyridin-2-yl)-5-oxopyrrolidine-2-carboxamide]",4,–
"Cc1cc(C(F)(F)F)cc(N2C(=O)OC[C@H]2C(=O)N(c2ccc(F)c(Cl)c2)C(C)C)n1 [Example 104, (S)-N-(3-Chloro-4-fluorophenyl)-N-isopropyl-3-(6-methyl-4-(trifluoromethyl)pyridin-2-yl)-2-oxooxazolidine-4-carboxamide]",–,35
"CCN(C(=O)[C@@H]1C[C@H](N(C)[C@H]2CCC[C@H]2O)CN1c1cc(C(F)(F)F)cc(C)n1)c1ccc(F)c(F)c1 [Example 142, (2S,4S)-N-(3,4-Difluorophenyl)-N-ethyl-4-(((1S,2R)-2-hydroxycyclopentyl)(methyl)amino)-1-(6-methyl-4-(trifluoromethyl)pyridin-2-yl)pyrrolidine-2-carboxamide]",160,–
"Cc1cc(C(F)(F)F)cc(N2C(=O)N(CCS(C)(=N)=O)C[C@H]2C(=O)N(C)c2ccc(F)c(Cl)c2F)n1 (stereo partly drawn) [Example 212, (4S)—N-(3-Chloro-2,4-difluorophenyl)-N-methyl-3-(6-methyl-4-(trifluoromethyl)pyridin-2-yl)-1-(2-(S-methylsulfonimidoyl)ethyl)-2-oxoimidazolidine-4-carboxamide]",6,–
"Cc1cc(C(F)(F)F)cc(N2C(=O)OC[C@H]2C(=O)N(C)c2ccc(C3CC3)c(Cl)c2)n1 [Example 173, (S)—N-(3-Chloro-4-cyclopropylphenyl)-N-methyl-3-(6-methyl-4-(trifluoromethyl)pyridin-2-yl)-2-oxooxazolidine-4-carboxamide]",13,–
